The values that follow are results of earlier work, collected in PMC11599114 (Viruses, 2024).

As usually defined, the IC90 is the concentration needed for an effect of 90%. One may read the IC50 as the midpoint of a concentration-inhibition curve. As a reminder, the inhibition is the drop in the measured response relative to a control, in per cent. As usually defined, the EC50 is the concentration giving half of the maximal effect.

Where two headings read alike, the source gives them in different places.

One data set has as its system HSV-1. The settings on record: HSV-1, Vero.
Data set [1] has as its system SARS-CoV-2. The settings on record: SARS-CoV-2, Vero.
For the next data set, the system named is HCoV-OC43. The settings on record: HCoV-OC43, Vero.
For another data set, the system named is HSV-2. The settings on record: HSV-2, Vero.
The test system of a further data set is HCoV-229E. Particulars: Vero.
Another data set relates to Measles virus(MeV). Particulars: VERO/hSLAM.
Data set [2] deals with influenza virus(H1N1,VR-1894). Particulars: H1N1 VR-1894, MDKC.
In another data set the test system is RSV. Particulars: fusion, ref AVPdb.
The next data set deals with INFVA. Set-up: method as in AVPdb. Particulars: ref AVPdb; for IC50: virus entry; for EC50: fusion.
For data set [3], the system named is human parainfluenza virus 3 (HPIV3). Further details: method as in ref 16973588. The settings on record: HPIV3 infection, HeLa.
For data set [4] the test system is unchanged. Further details: method as in ref 16973588. Particulars: HPIV3 fusion, HeLa.
The subject of another data set is influenza A virus(H1N1). Set-up: method as in 2 sources. Particulars: A(H1N1), MDCK.
The subject of data set [5] is SARS-CoV-2. Further details: method as in ref 34328726. The settings on record: for IC50: SARS-CoV-2 entry, HEK293T/ACE2.

For FVPWFSKFlPRIL [DRAVPe00378], the IC90 is 18.8 µM in the data set on HSV-1, 14 µM in the data set on SARS-CoV-2 [1], 24.1 µM in the data set on HCoV-OC43 and 19.2 µM in the data set with HSV-2.
As to FVPWFSKFlWRIL [DRAVPe00385], the IC90 in the data set on HSV-1 was 8.25 µM; in the data set with SARS-CoV-2 [1], 27.7 µM; in the data set with HCoV-OC43, 24.2 µM; with HSV-2, 12.5 µM; in the data set on HCoV-229E, 50 µM.
For FVPWFSKFlXRIL [DRAVPe00380], the IC90 is 15.9 µM in the data set on HSV-1; 25 µM in the data set on SARS-CoV-2 [1]; 27.7 µM in the data set on HCoV-OC43; 19 µM in the data set with HSV-2; above 50 µM in the data set with HCoV-229E.
In the case of FVPWFSKFlXRILC [DRAVPe00389], the IC90 was 11.1 µM with HSV-1, above 50 µM with Measles virus(MeV), 12 µM with SARS-CoV-2 [1] and 10 µM in data set [2].
For FVPWFSKFlXRILGGC [DRAVPe00390], the IC90 in the data set with HSV-1 is 48 µM; with Measles virus(MeV), above 50 µM; with SARS-CoV-2 [1], 50 µM; in [2] it was 49.9 µM.
In the case of FVPWFSKFlwRIL [DRAVPe00386], the IC90 in the data set on HSV-1 was 7.89 µM; in the data set with SARS-CoV-2 [1], 14.8 µM; in the data set on HCoV-OC43, 17.4 µM; with HSV-2, 9.76 µM; in the data set with HCoV-229E, 50 µM.
As for FVPWFSKFlxRIL [DRAVPe00382], the IC90 with HSV-1 is 12.8 µM; in the data set with SARS-CoV-2 [1] it was 17.4 µM; with HCoV-OC43, 24.7 µM; in the data set with HSV-2, 11.9 µM; in the data set with HCoV-229E, above 50 µM.
Consider “FYDPLVFPSDEFDASISQVNEKINQSLAFIRKSDE [AVP0130]”, for which the IC50/EC50 in the data set with RSV was 20 µM.
Regarding GAWYKGRARPVSAVA [AVP0963], the IC50 in the data set with INFVA was 53000 nM.
As for GWWYKGRARAVSAVA [AVP0964], the IC50 with INFVA is 89000 nM.
For GWWYKGRARPVSAVA [AVP0961], the IC50 in the data set with INFVA was 3200 nM.
Take “IDISIELNKAKSDLEESKEWIRRSNQKLDSIGNWH [DRAVPe00930]”: the IC50 was 0.5 µM in data set [3] and 1.5 µM in data set [4].
On to “IINFYDPLVFPSDEFDASISQVNEKINQSLAFIRK [AVP0127]”, for which the IC50/EC50 with RSV is 91 µM.
Regarding “INFYDPLVFPSDEFDASISQVNEKINQSLAFIRKS [AVP0128]”, the IC50/EC50 in the data set with RSV is 93 µM.
IPLRGAFINGRWDSQCHRFS [DRAVPe01801]: the IC50 in the data set with influenza A virus(H1N1) was 12.9 µg/mL.
For the substance IYALLENAEDYNLVN [DRAVPe01985], the IC50 in the data set on SARS-CoV-2 [5] is 0.009 ± 0.004 µM. The inhibition with SARS-CoV-2 [5] (at 25 µM) is 100%.
In the case of “LVFPSDEFDASISQVNEKINQSLAFIRKSDELLHN [AVP0134]”, the IC50/EC50 with RSV is 9 µM.
For “NFYDPLVFPSDEFDASISQVNEKINQSLAFIRKSD [AVP0129]”, in the data set with RSV, the IC50/EC50 is above 100 µM.
Consider “NFYDPLVFPSDEFDASISQVNEKINQSLASIRKSDELLHNVNAGK [AVP1972]”, for which the IC50/EC50 with RSV was 2.93 µM.
Turning to NGESSADWAKN [AVP1196], the EC50 in the data set on INFVA is 225 ± 1.16 pM.
Turning to “PLVFPSDEFDASISQVNEKINQSLAFIRKSDELLH [AVP0133]”, the IC50/EC50 in the data set with RSV is 30 µM.
As for “PSDEFDASISQVNEKINQSLAFIRKSDELLHNVNA [AVP0137]”, the IC50/EC50 in the data set with RSV is 6 µM.
Consider QDKHEEDYQMYNKGDKED [DRAVPe01982], for which, in the data set with SARS-CoV-2 [5], the IC50 was 0.018 ± 0.002 µM. For the same substance, the inhibition was 95% in the data set on SARS-CoV-2 [5] (at 0.39 µM) and 100% in the data set with SARS-CoV-2 [5] (at 25 µM).
RAVWRHSVATPSHSV [AVP0969]: the IC50 in the data set with INFVA is above 500000 nM.
For the substance RRKKAAVALLPAVLLALLAP [AVP0554], in the data set with INFVA, the IC50 is 8000 nM.
For the substance RRKKIFYFFR [AVP1759], in the data set with INFVA, the IC50 is 155 nM.
Take RRKKWLVFFVIFYFFR [AVP1754]: the IC50 in the data set with INFVA is 0.04 nM.
In the case of “SDEFDASISQVNEKINQSLAFIRKSDELLHNVNAG [AVP0138]”, the IC50/EC50 in the data set on RSV was 6 µM.
Consider SKHSSLDCVLRP [AVP1194], for which, in the data set with INFVA, the EC50 was 4 ± 0.37 pM.
Turning to SRDKHEEHEKENDRGQ [DRAVPe01986], the IC50 in the data set on SARS-CoV-2 [5] was 0.01 ± 0.005 µM. Besides, the inhibition in the data set with SARS-CoV-2 [5] (at 25 µM) was 100%.
As to “VALDPIDISIELNKAKSDLEESKEWIRRSNQKLDSD [DRAVPe01313]”, the IC50 in data set [3] is 0.5 µM; in [4], 0.35 µM.
In the case of “VALDPIDISIELNKAKSDLEESKEWIRRSNQKLDSI [DRAVPe01311]”, the IC50 in data set [3] and in [4] was 0.5 µM throughout.
Regarding “VANDPIDISIELNKAKSDLEESKEWIRRSNQKLDSI [DRAVPe01312]”, the IC50 in data set [3] was 1.1 µM; in data set [4] it was 0.75 µM.
As to “VFPSDEFDASISQVNEKINQSLAFIRKSDELLHNV [AVP0135]”, in the data set on RSV, the IC50/EC50 is 19 µM.
In the case of WLVFFVIAYFAR [AVP1755], the IC50 in the data set on INFVA was 0.87 nM.
Take WLVFFVIFYFFR [AVP1756]: the IC50 in the data set on INFVA is 93.6 nM.
Regarding WLVFFVIFYFFRRRKK [AVP1753], the IC50 in the data set with INFVA is 0.03 nM.
With WLVFFVRRKK [AVP1806], the IC50 with INFVA was 638 nM.
On to “YDPLVFPSDEFDASISQVNEKINQSLAFIRKSDEL [AVP0131]”, for which, in the data set with RSV, the IC50/EC50 was 6 µM.
